Measurements reported in patent US11358992B2, “Cell-penetrating cereblon recombinant fusion protein and use thereof” (UPPTHERA, priority 2020, dated 2022).

System: MM1.S lenalidomide-resistant cells
Assay: Cell viability (EZ-Cytox) of lenalidomide-resistant multiple myeloma cells
Format: cell-based
Settings: 42 hours culture + 3 hours EZ-Cytox, absorbance 450 nm
Experimental: The MM1.S cell line (American Type Culture Collection, ATCC from USA) was incubated in RPMI1640 medium containing 10% FBS and 1% penicillin/streptomycin at 37° C. under 5% CO2. The Lenalidomide-resistant MM1.S cell line was established by gradually adding […] lenalidomide (Sigma-Aldrich, Cat No. D2438) from 5 μM to 200 μM to the cell line culture.
In order to evaluate cytotoxic effects of the 30Kcα-CRBN recombinant fusion protein, 1×104 MM1.S lenalidomide-resistant cells were seeded in each well of a 96 well plate. 200 μM of lenalidomide and/or 3 μM of 30Kcα-CRBN recombinant fusion protein were added to each well according to the experimental group. The total medium volume of each well was adjusted to 100 μL. Then, each medium was cultured for 42 hours, and 10 μl of EZ-Cytox (Cat. No. EZ-3000 from Dogen) was added to each well, followed by incubation for 3 hours. Thereafter, absorbance was measured at 450 nm using a microplate reader (Clarostar™ from BMGlabtech), and a cell viability (%) was calculated by using the measured absorbance and shown in FIG. 2.

Nc1cccc2c1CN(C1CCC(=O)NC1=O)C2=O (centres unmarked) [lenalidomide]
cell viability (lenalidomide 200 μM alone, without 30Kcα-CRBN fusion protein, FIG. 2A): could not be reduced

B1: 30Kcα-CRBN recombinant fusion protein: Fusion recombinant protein of 30Kc19 α-helix domain (30Kc19α, SEQ ID NO: 1) linked N-terminally to human cereblon (SEQ ID NO: 2) (protein)
chain: ADSDVPNDILEEQLYNSVVVADYDSAVEKSKHLYEEKKSEVITNVVNKLIRNNKMNCMEYAYQLWLQGSKDIVRDCFPVEFRLIFAENMAGEGDQQDAAHNMGNHLPLLPAESEEEDEMEVEDQDSKEAKKPNIINFDTSLPTSHTYLGADMEEFHGRTLHDDDSCQVIPVLPQVMMILIPGQTLPLQLFHPQEVSMVRNLIQKDRTFAVLAYSNVQEREAQFGTTAEIYAYREEQDFGIEIVKVKAIGRQRFKVLELRTQSDGIQQAKVQILPECVLPSTMSAVQLESLNKCQIFPSKPVSREDQCSYKWWQKYQKRKFHCANLTSWPRWLYSLYDAETLMDRIKKQLREWDENLKDDSLPSNPIDFSYRVAACLPIDDVLRIQLLKIGSAIQRLRCELDIMNKCTSLCCKQCQETEITTKNEIFSLSLCGPMAAYVNPHGYVHETLTVYKACNLNLIGRPSTEHSWFPGYAWTVAQCKICASHIGWKFTATKKDMSPQKFWGLTRSALLPTIPDTEDEISPDKVILCL
modifications: 30Kc alpha-CRBN
reduction of cell viability compared with the control (3 μM 30Kcα-CRBN fusion protein in combination with 200 μM lenalidomide, FIG. 2B): ~50%
